The text below walks through data of patent US7723523B2, “Tetrahydropyridothiophenes” (4SC AG, priority 2004, dated 2010).

The subject of experiment [1] is RKO (RKOp27) human colon adenocarcinoma cells. In words: Alamar Blue cell viability assay, anti-proliferative/cytotoxic activity on proliferating RKOp27 cells. It is filed as cell-based. To be noted: absence of Ponasterone A, 72 hours incubation, read-out: IC50 RKO p27 proliferating. The method in brief: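 RKOp27 subclone of RKO cells, 4000/well in DMEM with 10% FCS, was treated 24 h after seeding with semi-log compound dilutions in quadruplicate for 72 h at 37 °C, 5% CO2. Alamar Blue fluorescence (ex 544/em 590 nm) was read as % viability of untreated cells, and IC50 was taken from concentration-effect curves.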

The subject of experiment [2] is RKO colon adenocarcinoma cells (RKOp27) arrested by expression of ectopic p27Kip1. Kind of experiment: Alamar Blue cell viability assay on RKOp27 cells arrested by Ponasterone A-induced p27Kip1 (cell cycle specific mode of action). In kind it is cell-based. To be noted: Homo sapiens, RKOp27, 72 h, cells arrested by p27Kip1 induced with 10 μM Ponasterone A, 72 hours incubation, read-out: IC50 RKO p27 arrested. The method in brief:
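Viability measured by Alamar Blue fluorescence (ex 544, em 590 nm) after 72 h, 37 °C compound exposure in quadruplicate, normalized to untreated cells as 100%. Cells were p27Kip1-arrested RKOp27, induced with 10 μM Ponasterone A at seeding; compound added 24 h later.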
On the technique in general: Alamar Blue is a resazurin reagent that responds to reducing activity.

Each structure is given as a SMILES string.

Take `CC(=O)N1CCc2c(sc(NC(=O)/C=C/c3ccccc3)c2C#N)C1` [Example 34, (E)-N-(6-Acetyl-3-cyano-4,5,6,7-tetrahydro-thieno[2,3-c]pyridin-2-yl)-3-phenyl-acrylamide]: the figures for the IC50 in experiment [1] and in experiment [2] were no more than 2 µM and greater than 100 µM, respectively.

For `COCC(=O)N1CCc2c(sc(NC(=O)/C=C/c3ccccc3OC)c2C#N)C1` [Example 210, (E)-N-[3-Cyano-6-(2-methoxy-ethanoyl)-4,5,6,7-tetrahydro-thieno[2,3-c]pyridin-2-yl]-3-(2-methoxy-phenyl)-acrylamide], the IC50 in experiment [1] was no more than 2 µM; in experiment [2], no less than 100 µM.

Consider `CCOC(=O)N1CCc2c(sc(NC(=O)/C=C/c3c(F)cccc3Cl)c2C#N)C1` [Example 67, 2-[(E)-3-(2-Chloro-6-fluoro-phenyl)-allanoylamino]-cyano-4,7-dihydro-5H-thieno[2,3-c]pyridine-6-carboxylic acid ethyl ester], for which the IC50 is no more than 2 µM in experiment [1] and no less than 100 µM in experiment [2].

For `CC(C)(C)OC(=O)N1CCc2c(sc(NC(=O)/C=C/c3cccnc3)c2C#N)C1` [Example 32, 3-Cyano-2-((E)-3-pyridin-3-yl-allanoylamino)-4,7-dihydro-5H-thieno[2,3-c]pyridine-6-carboxylic acid tert-butyl ester], the 50% inhibitory concentration (IC50) in experiment [1] was no more than 2 µM; in experiment [2], greater than 100 µM.

Take `CCOC(=O)N1CCc2c(sc(NC(=O)/C=C/c3ccccc3Cl)c2C#N)C1` [Example 4, N-(6-Ethoxycarbonyl-3-cyano-4,5,6,7-tetrahydro-thieno[2,3-c]pyridin-2-yl)-3-(2-chlorophenyl)-acrylamide]: the values for the half-inhibitory concentration (IC50) in experiment [1] and in experiment [2] were no more than 2 µM and greater than 100 µM, respectively.

Consider `CCOC(=O)N1CCc2c(sc(NC(=O)/C=C/c3c(OC)cccc3OC)c2C#N)C1` [Example 108, 3-Cyano-2-[(E)-3-(2,6-dimethoxy-phenyl)-allanoylamino]-4,7-dihydro-5H-thieno[2,3-c]pyridine-6-carboxylic acid ethyl ester], for which the IC50 is no more than 2 µM in experiment [1] and no less than 100 µM in experiment [2].

In the case of `N#Cc1c(NC(=O)/C=C/c2ccccc2)sc2c1CCN(C(=O)OCCCc1cccnc1)C2` [Example 125, 3-Cyano-2-((E)-3-phenyl-allanoylamino)-4,7-dihydro-5H-thieno[2,3-c]pyridine-6-carboxylic acid 3-pyridin-3-yl-propyl ester], the IC50 in experiment [1] was no more than 2 µM; in experiment [2] it was no less than 100 µM.

Consider `CCOC(=O)N1CCc2c(sc(NC(=O)/C=C/c3ccc(Cl)cc3F)c2C#N)C1` [Example 59, 2-[(E)-3-(4-Chloro-2-fluoro-phenyl)-allanoylamino]-3-cyano-4,7-dihydro-5H-thieno[2,3-c]pyridine-6-carboxylic acid ethyl ester], for which the IC50 in experiment [1] is no more than 2 µM; in experiment [2] it was no less than 100 µM.

For the compound `COc1ccccc1/C=C/C(=O)Nc1sc2c(c1C#N)CCN(C(=O)CCc1cccnc1)C2` [Example 206, (E)-N-[3-Cyano-6-(3-pyridin-3-yl-propanoyl)-4,5,6,7-tetrahydro-thieno[2,3-c]pyridin-2-yl]-3-(2-methoxy-phenyl)-acrylamide], the IC50 in experiment [1] is no more than 2 µM; in experiment [2], no less than 100 µM.

For `CCOC(=O)N1CCc2c(sc(NC(=O)/C=C/c3cc(F)ccc3C)c2C#N)C1` [Example 79, 3-Cyano-2-[(E)-3-(5-fluoro-2-methyl-phenyl)-allanoylamino]-4,7-dihydro-5H-thieno[2,3-c]pyridine-6-carboxylic acid ethyl ester], the IC50 in experiment [1] was no more than 2 µM; in experiment [2] it was no less than 100 µM.

As for `CCSC(=O)N1CCc2c(sc(NC(=O)/C=C/c3ccccc3Cl)c2C#N)C1` [Example 48, 2-[(E)-3-(2-Chloro-phenyl)-allanoylamino]-3-cyano-4,7-dihydro-5H-thieno[2,3-c]pyridine-6-carbothioic acid S-ethyl ester], the IC50 was no more than 2 µM in experiment [1] and no less than 100 µM in experiment [2].

As for `COCCC(=O)N1CCc2c(sc(NC(=O)/C=C/c3ccccc3OC)c2C#N)C1` [Example 211, (E)-N-[3-Cyano-6-(3-methoxy-propanoyl)-4,5,6,7-tetrahydro-thieno[2,3-c]pyridin-2-yl]-3-(2-methoxy-phenyl)-acrylamide], the results for the IC50 in experiment [1] and in experiment [2] were no more than 2 µM and no less than 100 µM, respectively.

Regarding `CCOC(=O)N1CCc2c(sc(NC(=O)/C=C/c3ccc(C)cc3)c2C#N)C1` [Example 27, 3-Cyano-2-((E)-3-p-tolyl-allanoylamino)-4,7-dihydro-5H-thieno[2,3-c]pyridine-6-carboxylic acid ethyl ester], the IC50 in experiment [1] is no more than 2 µM; in experiment [2] it was greater than 100 µM.

For `CCOc1ccccc1/C=C/C(=O)Nc1sc2c(c1C#N)CCN(C(=O)CCc1ccccc1)C2` [Example 221, (E)-N-[3-Cyano-6-(3-phenyl-propanoyl)-4,5,6,7-tetrahydro-thieno[2,3-c]pyridin-2-yl]-3-(2-ethoxy-phenyl)-acrylamide], the values for the IC50 in experiment [1] and in experiment [2] were no more than 2 µM and no less than 100 µM, respectively.

Consider `COC(=O)COC(=O)N1CCc2c(sc(NC(=O)/C=C/c3ccccc3)c2C#N)C1` [Example 133, 3-Cyano-2-((E)-3-phenyl-allanoylamino)-4,7-dihydro-5H-thieno[2,3-c]pyridine-6-carboxylic acid methoxycarbonylmethyl ester], for which the figures for the IC50 in experiment [1] and in experiment [2] were no more than 2 µM and no less than 100 µM, respectively.

On to `COCCOCCOC(=O)N1CCc2c(sc(NC(=O)/C=C/c3ccccc3)c2C#N)C1` [Example 129, 3-Cyano-2-((E)-3-phenyl-allanoylamino)-4,7-dihydro-5H-thieno[2,3-c]pyridine-6-carboxylic acid 2-(2-methoxy-ethoxy)-ethyl ester], for which the IC50 in experiment [1] was no more than 2 µM; in experiment [2], no less than 100 µM.

Take `COCCOC(=O)N1CCc2c(sc(NC(=O)/C=C/c3ccccc3Cl)c2C#N)C1` [Example 142, 2-[(E)-3-(2-Chloro-phenyl)-allanoylamino]-3-cyano-4,7-dihydro-5H-thieno[2,3-c]pyridine-6-carboxylic acid 2-methoxy-ethyl ester]: the IC50 is no more than 2 µM in experiment [1] and no less than 100 µM in experiment [2].

Consider `N#Cc1c(NC(=O)/C=C/c2cccnc2)sc2c1CCN(C(=O)OCCc1cccnc1)C2` [Example 159, 3-Cyano-2-((E)-3-pyridin-3-yl-allanoylamino)-4,7-dihydro-5H-thieno[2,3-c]pyridine-6-carboxylic acid 2-pyridin-3-yl-ethyl ester], for which the IC50 in experiment [1] was no more than 2 µM; in experiment [2] it was no less than 100 µM.

With `N#Cc1c(NC(=O)/C=C/c2ccccc2Cl)sc2c1CCN(C(=O)Cc1ccccn1)C2` [Example 212, (E)-3-(2-Chloro-phenyl)-N-[3-cyano-6-(2-pyridin-2-yl-ethanoyl)-4,5,6,7-tetrahydro-thieno[2,3-c]pyridin-2-yl]-acrylamide], the IC50 in experiment [1] was no more than 2 µM; in experiment [2] it was no less than 100 µM.

For the compound `COC(=O)c1ccc(OC(=O)N2CCc3c(sc(NC(=O)/C=C/c4cccnc4)c3C#N)C2)cc1` [Example 151, 3-Cyano-2-((E)-3-pyridin-3-yl-allanoylamino)-4,7-dihydro-5H-thieno[2,3-c]pyridine-6-carboxylic acid 4-methoxycarbonyl-phenyl ester], the figures for the IC50 in experiment [1] and in experiment [2] were no more than 2 µM and no less than 100 µM, respectively.

Turning to `CCOC(=O)N1CCc2c(sc(NC(=O)/C=C/c3cccc(C)c3C)c2C#N)C1` [Example 86, 3-Cyano-2-[(E)-3-(2,3-dimethyl-phenyl)-allanoylamino]-4,7-dihydro-5H-thieno[2,3-c]pyridine-6-carboxylic acid ethyl ester], the IC50 in experiment [1] was no more than 2 µM; in experiment [2] it was no less than 100 µM.

For `N#Cc1c(NC(=O)/C=C/c2ccccc2)sc2c1CCN(C(=O)OCCN1CCCC1)C2` [Example 114], the figures for the IC50 in experiment [1] and in experiment [2] were no more than 2 µM and no less than 100 µM, respectively.

For `CCOC(=O)N1CCc2c(sc(NC(=O)/C=C/c3ccc(C)o3)c2C#N)C1` [Example 74, 3-Cyano-2-[(E)-3-(5-methyl-furan-2-yl)-allanoylamino]-4,7-dihydro-5H-thieno[2,3-c]pyridin-6-carboxylic acid ethyl ester], the IC50 in experiment [1] is no more than 2 µM; in experiment [2] it was no less than 100 µM.

With `N#Cc1c(NC(=O)/C=C/c2cccnc2)sc2c1CCN(C(=O)Cc1cccnc1)C2` [Example 205, (E)-N-[3-Cyano-6-(2-pyridin-3-yl-ethanoyl)-4,5,6,7-tetrahydro-thieno[2,3-c]pyridin-2-yl]-3-pyridin-3-yl-acrylamide], the IC50 in experiment [1] was no more than 2 µM; in experiment [2] it was no less than 100 µM.

For `COc1ccccc1/C=C/C(=O)Nc1sc2c(c1C#N)CCN(C(=O)OCCc1ccccn1)C2` [Example 139, 3-Cyano-2-[(E)-3-(2-methoxy-phenyl)-allanoylamino]-4,7-dihydro-5H-thieno[2,3-c]pyridine-6-carboxylic acid 2-pyridin-2-yl-ethyl ester], the figures for the IC50 in experiment [1] and in experiment [2] were no more than 2 µM and no less than 100 µM, respectively.

As for `CCOC(=O)N1CCc2c(sc(NC(=O)/C=C/c3ccccc3C(F)(F)F)c2C#N)C1` [Example 23, 3-Cyano-2-[(E)-3-(2-trifluoromethyl-phenyl)-allanoylamino]-4,7-dihydro-5H-thieno[2,3-c]pyridine-6-carboxylic acid ethyl ester], the IC50 was no more than 2 µM in experiment [1] and greater than 100 µM in experiment [2].

On to `N#Cc1c(NC(=O)/C=C/c2cccnc2)sc2c1CCN(C(=O)OCc1ccncc1)C2` [Example 160, 3-Cyano-2-((E)-3-pyridin-3-yl-allanoylamino)-4,7-dihydro-5H-thieno[2,3-c]pyridin-6-carboxylic acid pyridin-4-ylmethyl ester], for which the figures for the IC50 in experiment [1] and in experiment [2] were no more than 2 µM and no less than 100 µM, respectively.

The IC50 is the concentration needed to halve the response being measured.
